Results on 11 compounds are retold here after patent US20250149635A1, “SILICATE PLATFORM AS WEAKLY-COORDINATING ANIONS FOR DIVERSE ORGANOMETALLIC TRANSFORMATIONS AND ELECTROCHEMICAL APPLICATIONS” (California Institute of Technology, priority 2023, published 2025).

Data set [1] is described as follows: Cyclic voltammetry of Mg deposition/stripping in DME. Particulars: for deposition overpotential: 0.25-0.26 M in DME with 10 mM Me2Mg, Pt wire WE, 25 mVs^−1; for oxidative stability: in DME, with 10 mM Me2Mg, sweep to 4.75 V. The format is physicochemical. The procedure:
FIG. 14A: Cyclic voltammetry experiments of 0.26 M 1-[Mg(DME)3] with 10 mM of Me2Mg. WE: Pt wire; CE: Mg strip; RE: Mg strip; Scan rate: 25 mVs^−1; Cycling protocol: −0.8 V to 4.0 V, 100 cycles. FIG. 14B: Cycles 1, 25, 50, 75, 100. FIG. 14C: Coulombic efficiency cycles 1-100; Cyclic voltammetry experiments of 0.26 M 1-[Mg(DME)3] with 10 mM of Me2Mg.
FIG. 15A: Cyclic voltammetry experiments of 0.25 M 2-[Mg(DME)3] with 10 mM of Me2Mg. WE: Pt wire; CE: Mg strip; RE: Mg strip; Scan rate: 25 mVs^−1; Cycling protocol: −0.8 V to 3.8 V, 100 cycles; FIG. 15B: Cycles 1, 25, 50, 75, 100. FIG. 15C: Coulombic efficiency cycles 1-100; Cyclic voltammetry experiments of 0.25 M 2-[Mg(DME)3] with 10 mM of Me2Mg.
FIG. 20: Cyclic voltammetry experiments of 0.26 M 1-[Mg(DME)3] in DME.WE: Pt wire; CE: Mg strip; RE: Mg strip; Scan rate: 25 mVs^−1; Cycling protocol: −0.8 V to 4.0 V, 200 cycles.
Cyclic voltammetry experiments of 1-[Mg(DME)3] were run in an empty N2-filled glovebox fitted with a purifier system that consists of a purifier cartridge (ca. 50% activated 4 Å molecular sieves and activated Cu catalyst) and a circulator fan, no solvent or chemicals were stored in the glovebox. Electrolyte solutions were prepared in a separate glovebox by dissolving 1-[Mg(DME)3] in 500 μL of DME and stirred with a new Teflon stir bar until complete dissolution. DME and 1-[Mg(DME)3] were only used with the glovebox circulation purifier turned off after extensive (minimum 20 minutes at […] above atmospheric pressure to ensure full atmosphere exchange) purging of the glovebox atmosphere to avoid cross-contamination with other atmospheric solvents. Upon complete dissolution of the electrolyte, the electrolyte solution was sealed and transported to the electrochemistry glovebox immediately before electrochemical experiments were performed.
Mg electrodes (99.9%, MTI) were polished with a razor blade immediately before use. Pt electrodes (wire, 0.5 mm diameter, 99.995%, Thermo Scientific) were soaked in concentrated HNO3 for at least 72 hours, rinsed with deionized water at least thrice, annealed with an H2 torch, and immediately brought into the glovebox in a flame-dried 20 mL scintillation vial while hot. Cyclic voltammetry experiments of 1-[Mg(DME)3] were performed in glass cells with 0.5 mL of electrolyte. A Pt wire served as the working electrode (WE), and Mg foils were the counter and reference electrodes (CE and RE). Experiments of 1-[Mg(DME)3] were conducted on either a Biologic SP150 potentiostat or a Biologic VSP-300 potentiostat.

Data set [2] can be described thus: Cyclic and linear sweep voltammetry of 0.1 M tetra-n-butylammonium salts in MeCN (electrochemical stability window). The format is physicochemical. An excerpt:
FIG. 12: Cyclic voltammetry and linear sweep voltammetry experiments of 0.1 M 1-[Bu4N] and [Bu4N][PF6] in MeCN; Current shown were normalized to the highest current in each experiment; FIG. 12A: Cyclic voltammogram of 1-[Bu4N] in MeCN; WE: Glassy carbon; CE: Pt wire; RE: Ag wire; scan rate=100 mVs^−1; FIGS. 12B and 12C: Linear sweep voltammograms of 0.1 M 1-[Bu4N] and [Bu4N][PF6] in MeCN; WE: Glassy carbon; CE: Pt wire; RE: Ag wire; scan rate=50 mVs^−1.
Linear sweep voltammetry experiments of 1-[Bu4N] and [Bu4N][PF6] were performed under an N2 atmosphere using a Pine Instrument Company AFCBP1 bipotentiostat using the AfterMath software package. Linear sweep voltammograms were recorded in the glovebox at 25° C. with an auxiliary Pt-coil counter electrode, Ag-wire reference electrode, and 3.0 mm glassy carbon working electrode (BASI). The electrolyte solution was 0.1 M of the corresponding tetra-n-butylammonium salt in MeCN. All reported values are referenced to an internal ferrocene/ferrocenium couple.

The conditions of data set [3]: calculated, literature ref. 47; cited from earlier work.
Data set [4] in a line: C2H4/CO copolymerization trials with cationic Pd catalyst. Here is the method: In a N2 glovebox, Pd catalyst (10 μmol) was dissolved in toluene (10 mL) was transferred to a Fisher-Porter vessel. The reactor was removed from the glovebox and connected to a C2H4/CO gas feed. The N2 atmosphere was replaced with a 1:1 mixture of C2H4/CO (flow rate 300 sccm for each gas) by pressurizing the vessel to 100 psi and venting 3×. After pressurizing to 100 psi, polymerization was run for 3 hr at RT. The reaction was quenched upon exposure to air, and the polymer was precipitated by stirring with acidic methanol (0.6 mL HCl/10 mL MeOH). The polymer was collected and dried under vacuum overnight.
NMRs were recorded in a mixture of 1, 1, 1, 3, 3, 3-hexafluoro-2-propanol and C6D6 (4:1) at RT.

Data set [5] can be described thus: Solubility determination by 19F NMR with fluorobenzene internal standard.
Protocol: Each sample was filtered, and 600 μL was transferred to a new vial. Fluorobenzene (5 μL) was added as an internal standard to the filtered solution and mixed thoroughly via pipette.
Setting [6] is: 0.1 M Bu4N salt in MeCN, glassy carbon WE.
[7] abbreviates: 10 μmol Pd catalyst in toluene, 100 psi 1:1 C2H4/CO, 3 hr at RT.

As for `COCCOC.COCCOC.COCCOC.C[Si-]12(OC(C(F)(F)F)(C(F)(F)F)C(C(F)(F)F)(C(F)(F)F)O1)OC(C(F)(F)F)(C(F)(F)F)C(C(F)(F)F)(C(F)(F)F)O2.C[Si-]12(OC(C(F)(F)F)(C(F)(F)F)C(C(F)(F)F)(C(F)(F)F)O1)OC(C(F)(F)F)(C(F)(F)F)C(C(F)(F)F)(C(F)(F)F)O2.[Mg+2]` [1-[Mg(DME)3], [Mg(DME)3][^MeSi^F24]2], the deposition overpotential result in data set [1] is on record as “ca. −420 mV vs. Mg/Mg^2+”. In addition, the “reductive overpotential, stabilized over continuous cycling” value in data set [1] (0.26 M in DME, absence of Me2Mg) is on record as “ca. 400 mV”. In addition, the “coulombic efficiency, stabilized with cycling” value in data set [1] (0.26 M in DME, absence of Me2Mg, −0.8 to 2.0 V vs. Mg/Mg^2+) was “ca. 96%”.
For the compound `F[P-](F)(F)(F)(F)F` [PF6^−, reference compound], the reductive stability result in data set [2] (setting [6]) was “ca. −3.1 V vs. Fc/Fc^+”.
Regarding `[F][Sb]([F])([F])([F])[F]` [SbF5], the fluoride affinity in data set [3] is 120 kcal/mol.
With `CC#N.FC(F)(F)c1cc([B-](c2cc(C(F)(F)F)cc(C(F)(F)F)c2)(c2cc(C(F)(F)F)cc(C(F)(F)F)c2)c2cc(C(F)(F)F)cc(C(F)(F)F)c2)cc(C(F)(F)F)c1.[CH3][Pd+]1[PH](c2ccccc2)(c2ccccc2)CC[PH]1(c1ccccc1)c1ccccc1` [[Pd(dppe)(NCMe)Me]^+[BAr^F24]^−, [Pd(dppe)(NCMe)Me][BAr^F24], reference compound], in data set [4] (setting [7]), the Activity is 2.28 g/mmol/h and the “Polymer Yield” value came to 68.6. In data set [4] (100 psi of C2H4/CO), this compound showed an Activity of 2.3 g/mmol/h.
For the compound `C[Si-]12(OC(C(F)(F)F)(C(F)(F)F)C(C(F)(F)F)(C(F)(F)F)O1)OC(C(F)(F)F)(C(F)(F)F)C(C(F)(F)F)(C(F)(F)F)O2` [[^MeSi^F24]], the oxidative stability result in data set [1] was “ca. 4.2 V vs. Mg/Mg^2+”. Further, in data set [2] (setting [6]), the “oxidative stability (stable up to)” value is “up to 4.5 V vs. Fc/Fc^+” and the reductive stability entry is “ca. −3.1 V vs. Fc/Fc^+”. Further, the electrochemical stability window in data set [2] (in MeCN) came to 7.5 V. Moreover, in data set [2] (in MeCN, versus [Bu4N][PF6]), the “oxidative stability surpassing that of PF6^−” value is recorded as “ca. 1 V”.
For (MeCN)Si(O2C6F12)2, in data set [3], the fluoride affinity was 113 kcal/mol.
[Bu4N][^MeSi^F24] [1-[Bu4N]]: the electrochemical stability window result in data set [2] (in MeCN) is recorded as “ca. 7.5 V”.
As for [K][^tBu2ArSi^F24] [3-[K]], in data set [5] (CH2Cl2), the “solubility in CH2Cl2 (in words)” value is on record as “high solubility”. The solubility in benzene in data set [5] (in benzene, stirred 16 hr, filtered, 19F NMR) was found to be 100 µM. Also, in data set [5] (in dichloromethane, 19F NMR), the solubility in dichloromethane came out at 400 µM.
As for [Mg(DME)3][^PhSi^F24]2 [2-[Mg(DME)3]], in data set [1], the deposition overpotential result is listed as “ca. −350 mV vs. Mg/Mg^2+” and the oxidative stability entry is given as “ca. 4.05 V vs. Mg/Mg^2+”.
Turning to “[Pd(dppe)(NCMe)Me][^tBu2ArSi^F24] [3-[Pd(dppe)(NCMe)Me]]”, in data set [4] (setting [7]), the Activity is 1.67 g/mmol/h and the “Polymer Yield” value was 50.2. Besides, the Activity in data set [4] (100 psi of C2H4/CO) turned out to be 1.7 g/mmol/h.
[Pd(dppe)(NCMe)Me]^+[^MeSi^F24]: in data set [4] (setting [7]), the Activity came to 1.06 g/mmol/h and the “Polymer Yield” value came out at 31.9.
